{
  "source": "patent US20080241816A1",
  "about": "“Method for Stabilizing Oxidizable Color Developing Reagent” (DAIICHI PURE CHEMICALS CO., LTD, priority 2004, published 2008)",
  "key": {"[1]": {"experiment": "Stabilization Test 2 for TPM-PS (storage at 25° C. for 10 days, absorbance at 600 nm)", "type": "physicochemical", "conditions": "for Variation over 10 days (OD): 600 nm", "protocol": "TPM-PS was dissolved in each of the aqueous solutions described below so as to attain a concentration of 100 μM, and absorbance was measured at 600 nm. After each sample was stored at 25° C. for 10 days, absorbance was again measured at 600 nm."}, "[2]": {"experiment": "Stabilization Test 1 for TPM-PS (storage at 37° C., absorbance at 600 nm)", "type": "physicochemical", "conditions": "for absorbance at 600 nm, 2-Week storage / absorbance at 600 nm, 3-Week storage / absorbance at 600 nm, Time 0: 37° C.; for absorbance at 600 nm, Time 0: time 0 (start)", "protocol": "TPM-PS was dissolved in each of the aqueous solutions described below so as to attain a concentration of 60 μM, and stored at 37° C. Subsequently, absorbance was measured at 600 nm by means of an automated analyzer (Model 7150; product of Hitachi, Ltd.)."}, "[3]": {"conditions": "60 μM in 5 mM Citric acid (pH 2.8)"}, "[4]": {"conditions": "60 μM in 5 mM Maleic acid (pH 2.5)"}, "[5]": {"conditions": "60 μM in 5 mM Tartaric acid (pH 2.8)"}},
  "data": [
    {"smiles": "O=S(=O)(O)CCCN(CCCS(=O)(=O)O)c1ccc(C(c2ccc(N(CCCS(=O)(=O)O)CCCS(=O)(=O)O)cc2)c2ccc(N(CCCS(=O)(=O)O)CCCS(=O)(=O)O)cc2)cc1", "note": "[TPM-PS, N,N,N′,N′,N″,N″-hexa-3-sulfopropyl-4,4′,4″-triaminotriphenylmethane]", "values": [
      {"measurement": "Variation over 10 days (OD)", "setting": "[1]; 100 μM in 100 mM Citrate buffer, pH 3, 25° C.", "result": "−0.01", "unit": "OD"},
      {"measurement": "Variation over 10 days (OD)", "setting": "[1]; 100 μM in 100 mM Citrate buffer, pH 4, 25° C.", "result": 0.08, "unit": "OD"},
      {"measurement": "Variation over 10 days (OD)", "setting": "[1]; 100 μM in 100 mM Citrate buffer, pH 5, 25° C.", "result": 0.15, "unit": "OD"},
      {"measurement": "Variation over 10 days (OD)", "setting": "[1]; 100 μM in 100 mM Glycine-HCl, pH 2, 25° C.", "result": 0.00, "unit": "OD"},
      {"measurement": "Variation over 10 days (OD)", "setting": "[1]; 100 μM in 100 mM Glycine-HCl, pH 3, 25° C.", "result": "−0.01", "unit": "OD"},
      {"measurement": "Variation over 10 days (OD)", "setting": "[1]; 100 μM in 100 mM Potassium phosphate buffer, pH 6, 25° C.", "result": 0.22, "unit": "OD"},
      {"measurement": "Variation over 10 days (OD)", "setting": "[1]; 100 μM in 100 mM Potassium phosphate buffer, pH 7, 25° C.", "result": 0.16, "unit": "OD"},
      {"measurement": "Variation over 10 days (OD)", "setting": "[1]; 100 μM in 100 mM Potassium phosphate buffer, pH 8, 25° C.", "result": 0.17, "unit": "OD"},
      {"measurement": "Variation over 10 days (OD)", "setting": "[1]; 100 μM in Control (purified water), pH Not regulated, 25° C.", "result": 0.22, "unit": "OD"},
      {"measurement": "Variation over 10 days (OD)", "setting": "[1]; 100 μM in HCl—KCl, pH 1, 25° C.", "result": "−0.01", "unit": "OD"},
      {"measurement": "Variation over 10 days (OD)", "setting": "[1]; 100 μM in HCl—KCl, pH 2, 25° C.", "result": 0.01, "unit": "OD"},
      {"measurement": "absorbance variation / storage stability", "setting": "[1]; aqueous solution of pH 1 to 5, 25° C., 10 days", "result": "stably stored"},
      {"measurement": "absorbance at 600 nm, 2-Week storage", "setting": "[2]; [3]", "result": 0.057},
      {"measurement": "absorbance at 600 nm, 3-Week storage", "setting": "[2]; [3]", "result": 0.080},
      {"measurement": "absorbance at 600 nm, Time 0", "setting": "[2]; [3]", "result": 0.022},
      {"measurement": "absorbance at 600 nm, 2-Week storage", "setting": "[2]; [4]", "result": 0.050},
      {"measurement": "absorbance at 600 nm, 3-Week storage", "setting": "[2]; [4]", "result": 0.072},
      {"measurement": "absorbance at 600 nm, Time 0", "setting": "[2]; [4]", "result": 0.023},
      {"measurement": "absorbance at 600 nm, 2-Week storage", "setting": "[2]; [5]", "result": 0.064},
      {"measurement": "absorbance at 600 nm, 3-Week storage", "setting": "[2]; [5]", "result": 0.088},
      {"measurement": "absorbance at 600 nm, Time 0", "setting": "[2]; [5]", "result": 0.024},
      {"measurement": "absorbance at 600 nm, 2-Week storage", "setting": "[2]; 60 μM in 20 mM PB-K (pH 8)", "result": 0.132},
      {"measurement": "absorbance at 600 nm, 3-Week storage", "setting": "[2]; 60 μM in 20 mM PB-K (pH 8)", "result": 0.215},
      {"measurement": "absorbance at 600 nm, Time 0", "setting": "[2]; 60 μM in 20 mM PB-K (pH 8)", "result": 0.023},
      {"measurement": "nonspecific color development / stability in solution", "setting": "[2]; aqueous solutions of pH 1 to 5, 37° C.", "result": "suppressed effectively"}
    ]}
  ]
}
